From article PMC11770808, “Interplay between conformational dynamics and substrate binding regulates enzymatic activity: a single-molecule FRET study” (Chemical Science, 2025)
Where two headings read alike, the source gives them in different places.

Molecular target: T1, adenylate kinase (AK), wild-type (WT) (Escherichia coli, UniProt P69441)
T1 construct: gene adk; purified recombinant, details only in ESI
Test: microscale thermophoresis
Format: binding

T1 sequence (P69441 whole entry): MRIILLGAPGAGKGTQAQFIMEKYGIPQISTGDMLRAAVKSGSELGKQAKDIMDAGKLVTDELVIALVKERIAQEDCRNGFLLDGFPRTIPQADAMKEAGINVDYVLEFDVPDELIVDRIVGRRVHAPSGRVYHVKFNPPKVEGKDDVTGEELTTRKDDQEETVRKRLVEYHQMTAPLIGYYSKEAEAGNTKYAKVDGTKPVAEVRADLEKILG

Row | SMILES | Kd (read-out: Kd (AMP)) | Kd (read-out: WT)
1 | Nc1ncnc2c1ncn2[C@@H]1O[C@H](COP(=O)(O)O)[C@@H](O)[C@H]1O [AMP] | 332 ± 40 µM | 
2 | Nc1ncnc2c1ncn2[C@@H]1O[C@H](COP(=O)(O)OP(=O)(O)OP(=O)(O)O)[C@@H](O)[C@H]1O [ATP] |  | 159 ± 17 µM
